Reference: patent US20260345555A1, “Compositions and Methods for Protecting Salivary Glands from Off-Target Radiation Damage” (University of Rochester, priority 2022, published 2026)

Assays:
[1] = in vivo; cited from earlier work
[2] = test system: senescence-associated β-galactosidase in salivary gland cell clusters (SGm); test: Cellular senescence assay (SPiDER-βGal) in salivary gland tissue chip, 5 days post-radiation (15 Gy); also second screen of library hits at 100 μM; assay type: cell-based, mouse; as to Senescence (radioprotection): key: +: radioprotection; ~: partial radioprotection; —: no radioprotection
Excerpt: The chip platform consists of an array of near-spherical microbubble (MB) cavities formed in poly(dimethylsiloxane) (PDMS). Each chip, containing ~50 MBs, affixed within wells of a 96-well plate (FIG. 1C). Primary salivary gland cell clusters (FIG. 1A), suspended in a poly(ethylene glycol) (PEG) hydrogel precursor and MMP-degradable peptide crosslinker solution together with the photoinitiator LAP, were applied to the chip allowing the clusters to deposit into the MBs (FIG. 1D). In situ polymerization of the hydrogel was achieved using long-wave, low intensity UV light. Over time, the cell clusters aggregate and proliferate to form SGm (FIG. 1C).
For senescence, a protocol similar to the glutathione assay was followed to determine the optimal time point post-radiation for detecting a change in senescence between 0 Gy and 15 Gy, as measured by senescence-associated β-galactosidase activity.
The glutathione and senescence assays were used to screen a library of FDA-approved drugs (Selleck Chemicals) at 100 μM. Drugs were first screened using the glutathione assay according to the timeline depicted in FIG. 2A. […] Hits with the glutathione assay were then tested with the senescence assay and considered a “double hit” if senescence levels were statistically similar to levels at 0 Gy (FIG. 4, black circles).
Mice were euthanized and the submandibular glands (SMG) were removed and chopped with a razor blade for 5 min. […] Cells were centrifuged, then resuspended in HBSS with 15 mM HEPES and passed through 100 μm and 20 μm mesh filters to isolate clusters between 20-100 μm. […] The isolated clusters were combined with hydrogel precursor solution and seeded in MB array-based chips as described below.
The cell/gel precursor solution (25 μL for 48 well; 20 μL for 96 well) was pipetted onto the MB chips and incubated for 30 min, pipetting every 10 min to redisperse cells that had settled onto the surface of the chip.
A cellular senescence assay for the chips was developed by adapting the Cellular Senescence Detection Kit—SPiDER-βGal (Dojindo Molecular Technologies, Inc. SG04). Bafilomycin A1 and SPiDER-βGal stock solutions were prepared in DMSO per manufacturer directions. The assay was performed by first incubating the chips with bafilomycin A1 (1:1000 dilution in media) for 1 hr at 37 °C. […] Chips were washed twice with media and imaged using a fluorescence microscope with a Texas Red filter (Excitation: 580 nm; Emission: 604 nm).
For radioprotection experiments, SGm were cultured in MB-hydrogel chips for 4 days, then drugs were added to the chips 30 min prior to irradiation and washed out with media 30 min post-radiation treatment. […] The glutathione and senescence assays were performed at 4- and 5-days post-radiation. For assay validation experiments, at least 3 chips (N=3) were used for each drug, corresponding to >100 MBs (n>100); these values are listed in the figure description for each experiment. Mean, standard deviation, and statistics were calculated based on the number of MBs (n).
For screening of the Selleck Chemicals compound library, the same treatment scheme was used, with drugs administered at 100 μM. One MB chip (N=1) was used per compound, with ~40-50 MBs per chip […]; statistics were calculated using the number of MBs (n) and compared to 0 Gy controls.
For both the glutathione and cellular senescence assays, images were quantified in ImageJ.

[3] = literature; cited from earlier work
[4] = test system: Reduced glutathione in salivary gland cell clusters (SGm); test: Glutathione assay in salivary gland tissue chip, 4 days post-radiation (15 Gy); also first screen of Selleck library at 100 μM; assay type: cell-based, mouse; conditions: for protection against glutathione level changes resulting from radiation: 50 μM; for hit in the drug screen: glutathione assay first screen, 100 μM; as to Glutathione (radioprotection): key: +: radioprotection; ~: partial radioprotection; —: no radioprotection
Summary of the method: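 Mouse submandibular gland cell clusters (20–100 μm) in PEG hydrogel on microbubble chips, cultured 4 days to form SGm, then dosed 30 min before and during 15 Gy irradiation and washed out 30 min after. Glutathione measured 4 days post-radiation; library compounds screened at 100 μM, hits matching 0 Gy levels.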

[5] = reason for exclusion from further testing; cited from earlier work
[6] = test system: p53-dependent and independent apoptosis; conditions: cited from earlier work
COX-1 = conditions: role: inhibitor; cited from earlier work
[7] = test system: irradiated salivary glands; conditions: literature; cited from earlier work
salivary flow rate = conditions: swine; cited from earlier work
[8] = in vivo; cited from earlier work; remark: listed apart in the source
lymphocyte cells = conditions: viability of lymphocytes as primary readout; cited from earlier work

## CCCSc1ccc2nc(NC(=O)OC)[nH]c2c1 [Albendazole (Albenza)]
[1]
  bioavailability: poor bioavailability

## CC1=NN(c2ccccc2)C(=O)C1 [Edaravone, 3-methyl-1-phenyl-2-pyrazoline-5-one]
[2]; 100 μM
  Senescence (radioprotection): +
  protection against radiation-induced senescence: protective
[2]; 1 mM
  Senescence (radioprotection): +
[2]; 4 mM
  Senescence (radioprotection): +
[2]; Mus musculus, light or radiation study, 120 h, 100 μM, versus untreated, irradiated controls, read-out: reduction in senescence
  inhibition at 100 µM: 96%
[2]; Mus musculus, light or radiation study, 120 h, 1 mM, versus untreated, irradiated controls, read-out: reduction in senescence
  inhibition at 1000 µM: 94%
[2]; Mus musculus, light or radiation study, 120 h, 4 mM, versus untreated, irradiated controls, read-out: reduction in senescence
  inhibition at 4000 µM: 113%
[3]
  radio-protective dose range: 100 to 1000 µM
[4]; 0.1 mM
  radioprotection using the glutathione assay: partial radioprotection
[4]; 0.1 mM, 15 Gy
  glutathione levels maintained: ~ 43%
[4]; 1 mM
  Glutathione (radioprotection): +
[4]; 1 mM, 15 Gy, 4 days post-radiation
  prevention of radiation-induced reduction of glutathione levels: showed protection
[4]; 4 mM, 15 Gy, 4 days post-radiation
  prevention of radiation-induced reduction of glutathione levels: not at 4 mM

## COC(=O)[C@@H]1CC2=CC(=O)CC[C@]2(C)[C@@]23O[C@@H]2C[C@@]2(C)[C@@H](CC[C@@]24CCC(=O)O4)[C@H]13 [Eplerenone]
[5]
  solubility: concerns with solubility

## CC(O)(P(=O)(O)O)P(=O)(O)O [Etidronate (Didronel)]
[2]; second screen of library hits at 100 μM, 15 Gy, 5 days post-radiation, only drugs nonsignificant compared to 0 Gy in the glutathione assay
  Senescence normalized mean intensity: 0.992
[1]
  bioavailability: poor bioavailability
[4]; first screen of Selleck library at 100 μM, 15 Gy, 4 days post-radiation
  Glutathione normalized mean intensity: 0.9486

## O=C(O)c1ccc(/C=C/S(=O)(=O)Cc2ccc(Cl)cc2)cc1 [Ex-Rad]
[2]; 50 μM, 15 Gy
  radioprotection (senescence): 45%
[6]
  apoptosis: reduce p53-dependent and independent apoptosis
[4]; 15 Gy
  protection against glutathione level changes resulting from radiation: no effect observed

## COc1ccc(Cl)cc1C(=O)NCCc1ccc(S(=O)(=O)NC(=O)NC2CCCCC2)cc1 [Glyburide]
[3]
  radioprotection: radioprotectors

## COc1ccc2c(c1)c(CC(=O)O)c(C)n2C(=O)c1ccc(Cl)cc1 [Indomethacin]
COX-1
  COX-1 inhibition: only blocks COX-1
[7]
  mitigation of salivary gland damage: mitigation of salivary gland damage
[4]; 100 μM library screen
  radioprotection in drug screen: showed radioprotection
[4]; concentrations lower than 100 μM
  radioprotection in drug screen: ineffective

## CO[C@H]1C[C@@H]2CC[C@@H](C)[C@@](O)(O2)C(=O)C(=O)N2CCCC[C@H]2C(=O)O[C@H]([C@H](C)C[C@@H]2CC[C@@H](O)[C@H](OC)C2)CC(=O)[C@H](C)/C=C(\C)[C@@H](O)[C@@H](OC)C(=O)[C@H](C)C[C@H](C)/C=C/C=C/C=C/1C [Rapamycin]
[2]; 50 μM
  Senescence (radioprotection): +
[2]; 50 μM, 15 Gy
  protection against radiation-induced senescence: complete protection
[4]; 15 Gy
  protection against glutathione level changes resulting from radiation: 58%
Salivary flow rate
  salivary flow rate post-radiation: restore salivary flow rate post-radiation

## NCCCNCCSP(=O)(O)O [amifostine]
[8]
  adverse effects: severe side effects, including nausea, vomiting, and hypotension

## Cc1ccc(S(=O)(=O)NC(=O)NN2CC3CCCC3C2)cc1 (stereo not shown) [gliclazide]
[3]
  antioxidant activity: antioxidant activity
  radioprotection: radioprotectors

## CCn1cc(C(=O)O)c(=O)c2cc(F)c(N3CCNCC3)cc21 [norfloxacin]
Lymphocyte cells
  radioprotection of lymphocytes: radioprotectors
[4]
  hit in the drug screen: not hits

## CC1COc2c(N3CCN(C)CC3)c(F)cc3c(=O)c(C(=O)O)cn1c23 (stereo not shown) [ofloxacin]
Lymphocyte cells
  radioprotection of lymphocytes: radioprotectors
[4]
  hit in the drug screen: not hits
